# Experimental data reported in US20240218022A1, “ANTI-VISTA MACROCYCLIC PEPTIDES AND COMPOSITIONS” (BRISTOL-MYERS SQUIBB COMPANY, priority 2022, published 2024).
# pIC50: −log10 of the molar value. Like-named read-outs stand apart in the source and are kept apart here. Starred links: 1 amine or outer side, 2 acyl side, 3 side chain; linkers in the order of their positions; H or OH if unused. Positions of bridges follow the written chain, without caps; N, C: chain ends. Non-standard residues stand in square brackets, D forms with d. Residues, ends and D or L forms follow the SMILES beside them. Phe(3-Me) = Cc1cccc(C[C@H](N)C(=O)O)c1; γGlu = O=C(O)[C@H](CCC(=O)[*:2])N[*:1]; 2Nal = N[C@@H](Cc1ccc2ccccc2c1)C(=O)O; βAsp = O=C(O)[C@H](CC(=O)[*:2])N[*:1]; Cit = NC(=O)NCCC[C@H](N)C(=O)O; Ahp(2) = CCCCC[C@H](N)C(=O)O; NMeNle = CCCC[C@H](NC)C(=O)O; Tle = CC(C)(C)[C@H](N)C(=O)O; NMeS = CN[C@@H](CO)C(=O)O; NHexGly = CCCCCCNCC(=O)O; Nle = CCCC[C@H](N)C(=O)O; Orn = NCCC[C@H](N)C(=O)O; Aun = NCCCCCCCCCCC(=O)O; Dab = NCC[C@H](N)C(=O)O; AEEA = NCCOCCOCC(=O)O
# Molecular target: T1, mouse VISTA (mVISTA) (Mus musculus, UniProt Q9D659)
# T1 construct: expressed in transfected cells; host or cells: Human embryonic kidney 293T cells
# T1 sequence (Q9D659 33-308): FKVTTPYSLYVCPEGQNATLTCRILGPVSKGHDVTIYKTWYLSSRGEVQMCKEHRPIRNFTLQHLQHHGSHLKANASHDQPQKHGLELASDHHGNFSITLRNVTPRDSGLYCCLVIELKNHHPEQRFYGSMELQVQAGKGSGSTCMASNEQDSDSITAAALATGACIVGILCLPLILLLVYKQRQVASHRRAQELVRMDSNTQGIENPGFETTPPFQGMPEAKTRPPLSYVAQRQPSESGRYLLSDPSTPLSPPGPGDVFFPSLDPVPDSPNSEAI
# Experiment: Cell-Based Binding High-Content Assay For mVISTA (HC CBA mVISTA)
# Outline: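 293T cells expressing mouse VISTA, with compounds added either after seeding ("no wash") or before seeding and then washed out after 1 h. Biotinylated peptide 2 nM for 30 min at room temperature, then detection with Alexa 647–streptavidin. After fixation with Hoechst stain, plates were high-content imaged; IC50 from four-parameter logistic fit.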
# [1] = 293T cells expressing mouse VISTA, competition with biotinylated peptide (2 nM), read-out: HC CBA mVISTA IC50
# [2] = cell-based binding high-content assay, mVISTA, read-out: HC CBA miPrISTA IC50
# [3] = cell-based binding high-content assay, read-out: HC CBA miPrISTA IC50
smiles,measurement,setting,value
CCCCCCN1CC(=O)N[C@@H](Cc2ccc(O)cc2)C(=O)N[C@@H](CCCC)C(=O)N[C@@H](CC(N)=O)C(=O)N[C@@H](CCCNC(=N)N)C(=O)N(C)[C@@H](CCCC)C(=O)N[C@@H](CCCCC)C(=O)N2CCC[C@H]2C(=O)N[C@@H](C(C)(C)C)C(=O)N[C@@H](CO)C(=O)N[C@H](C(=O)NCCOCCOCC(=O)N[C@@H](CCC(=O)NCCOCCOCC(=O)NCCCCCCCCCCC(=O)O)C(=O)O)CSCC(=O)N[C@@H](Cc2ccccc2)C(=O)N[C@@H](Cc2c[nH]c3ccccc23)C(=O)N[C@@H](CC(=O)O)C1=O [compound 2226] ({CH2CO}-FWD[NHexGly]Y[Nle]NR[NMeNle][Ahp(2)]P[Tle]SC[AEEA][γGlu][AEEA][Aun]-OH; thioether N-14),pIC50,read-out: HC CBA mVISTA IC50,7.61
CCCCCCN1CC(=O)N[C@@H](Cc2ccc(O)cc2)C(=O)N[C@@H](CCCC)C(=O)N[C@@H](CC(=O)O)C(=O)N[C@@H](CCCNC(=N)N)C(=O)N[C@@H](CC(C)C)C(=O)N[C@@H](CCCCC)C(=O)N2CCC[C@H]2C(=O)N[C@@H](C(C)C)C(=O)N[C@@H](CC(C)C)C(=O)N[C@H](C(=O)NCC(=O)O)CSCC(=O)N[C@@H](Cc2ccccc2)C(=O)N[C@@H](Cc2ccc(O)cc2)C(=O)N[C@@H](CC(=O)O)C1=O [Example 1025] ({CH2CO}-FYD[NHexGly]Y[Nle]DRL[Ahp(2)]PVLCG-OH; thioether N-14),pIC50,[1],7.51
CCCCCCN1CC(=O)N[C@@H](Cc2ccc(O)cc2)C(=O)N[C@@H](CC(C)C)C(=O)N[C@@H](CC(N)=O)C(=O)N[C@@H](CCCNC(=N)N)C(=O)N(C)[C@@H](CCCC)C(=O)N[C@@H](CCCCC)C(=O)N2CCC[C@H]2C(=O)N[C@@H](C(C)(C)C)C(=O)N[C@@H](CC(=O)O)C(=O)N[C@H](C(=O)N[C@@H](CC(=O)NCCOCCOCC(=O)N[C@@H](CC(=O)O)C(=O)NCCOCCOCC(=O)NCCCCCCCCCCC(=O)O)C(=O)O)CSCC(=O)N[C@@H](Cc2ccccc2)C(=O)N[C@@H](Cc2cccc(C)c2)C(=O)N[C@@H](CC(=O)O)C1=O [compound 2075] ({CH2CO}-F[Phe(3-Me)]D[NHexGly]YLNR[NMeNle][Ahp(2)]P[Tle]DC[βAsp][AEEA]D[AEEA][Aun]-OH; thioether N-14),pIC50,[2],7.62
CCCCCCN1CC(=O)N[C@@H](Cc2ccc(O)cc2)C(=O)N[C@@H](CCCCC)C(=O)N[C@@H](CC(=O)O)C(=O)N[C@@H](CCCNC(=N)N)C(=O)N[C@@H](CC(C)C)C(=O)N[C@@H](CCCCC)C(=O)N2CCC[C@H]2C(=O)N[C@@H](C(C)C)C(=O)N[C@@H](CO)C(=O)N[C@H](C(=O)NCC(N)=O)CSCC(=O)N[C@@H](Cc2ccccc2)C(=O)N[C@@H](Cc2ccc(O)cc2)C(=O)N[C@@H](CC(=O)O)C1=O [Example 1038] ({CH2CO}-FYD[NHexGly]Y[Ahp(2)]DRL[Ahp(2)]PVSCG-NH2; thioether N-14),pIC50,[1],7.42
CCCCCCN1CC(=O)N[C@@H](Cc2ccc(O)cc2)C(=O)N[C@@H](CCCCC)C(=O)N[C@@H](CC(N)=O)C(=O)N[C@@H](CCCNC(=N)N)C(=O)N(C)[C@@H](CCCC)C(=O)N[C@@H](CCCCC)C(=O)N2CCC[C@H]2C(=O)N[C@@H](C(C)(C)C)C(=O)N[C@@H](CO)C(=O)N[C@H](C(=O)N[C@@H](CCC(=O)NCCCCCCCCCCC(=O)O)C(=O)O)CSCC(=O)N[C@@H](Cc2ccccc2)C(=O)N[C@@H](Cc2ccc(O)cc2)C(=O)N[C@@H](CC(=O)O)C1=O [Example 2142] ({CH2CO}-FYD[NHexGly]Y[Ahp(2)]NR[NMeNle][Ahp(2)]P[Tle]SC[γGlu][Aun]-OH; thioether N-14),pIC50,read-out: HC CBA mVISTA IC50,7.49
CCCCCCN1CC(=O)N[C@@H](Cc2ccc(O)cc2)C(=O)N[C@@H](CCCC)C(=O)N[C@@H](CC(N)=O)C(=O)N[C@@H](CCCNC(N)=O)C(=O)N[C@@H](CC(C)C)C(=O)N[C@@H](CCCCC)C(=O)N2CCC[C@H]2C(=O)N[C@@H](C(C)C)C(=O)N[C@@H](CO)C(=O)N[C@H](C(=O)NCCOCCOCC(=O)N[C@@H](CC(=O)O)C(=O)NCCOCCOCC(=O)NCCCCCCCCCCC(=O)O)CSCC(=O)N[C@@H](Cc2ccc3ccccc3c2)C(=O)N[C@@H](Cc2ccc(O)cc2)C(=O)N[C@@H](CC(=O)O)C1=O (stereo in doubt) [compound 2305],pIC50,[3],7.64
CCCCCCN1CC(=O)N[C@@H](Cc2ccc(O)cc2)C(=O)N[C@@H](CCCC)C(=O)N[C@@H](CC(N)=O)C(=O)N[C@@H](CCCNC(=N)N)C(=O)N(C)[C@@H](CO)C(=O)N[C@@H](CCCCC)C(=O)N2CCC[C@H]2C(=O)N[C@@H](C(C)(C)C)C(=O)N[C@@H](CO)C(=O)N[C@H](C(=O)NCCOCCOCC(=O)N[C@@H](CCC(=O)NCCOCCOCC(=O)NCCCCCCCCCCC(=O)O)C(=O)O)CSCC(=O)N[C@@H](Cc2ccccc2)C(=O)N[C@@H](Cc2c[nH]c3ccccc23)C(=O)N[C@@H](CC(=O)O)C1=O [compound 2245] ({CH2CO}-FWD[NHexGly]Y[Nle]NR[NMeS][Ahp(2)]P[Tle]SC[AEEA][γGlu][AEEA][Aun]-OH; thioether N-14),pIC50,read-out: HC CBA mVISTA IC50,7.56
CCCCCCN1CC(=O)N[C@@H](Cc2ccc(O)cc2)C(=O)N[C@@H](CC(C)C)C(=O)NCC(=O)N[C@@H](CCCNC(=N)N)C(=O)N[C@@H](Cc2ccc(O)cc2)C(=O)N[C@@H](CCCCC)C(=O)N2CCC[C@H]2C(=O)N[C@@H](C(C)C)C(=O)N[C@@H](CC(=O)O)C(=O)N[C@H](C(=O)NCC(N)=O)CSCC(=O)N[C@@H](Cc2ccc3ccccc3c2)C(=O)N[C@@H](Cc2c[nH]c3ccccc23)C(=O)N[C@@H](CC(=O)O)C1=O [compound 1264] ({CH2CO}-[2Nal]WD[NHexGly]YLGRY[Ahp(2)]PVDCG-NH2; thioether N-14),pIC50,"cell-based binding high-content assay, mVISTA, the 15th table, read-out: HC CBA mVISTA IC50",7.55
CCCCCCN1CC(=O)N[C@@H](Cc2ccc(O)cc2)C(=O)N[C@@H](CCCC)C(=O)N[C@@H](CC(N)=O)C(=O)N[C@@H](CCCNC(=N)N)C(=O)N[C@@H](CC(C)C)C(=O)N[C@@H](CCCCC)C(=O)N2CCC[C@H]2C(=O)N[C@@H](C(C)C)C(=O)N[C@@H](CC(=O)O)C(=O)N[C@H](C(=O)N[C@@H](Cc2ccc(O)cc2)C(N)=O)CSCC(=O)N[C@@H](Cc2ccc3ccccc3c2)C(=O)N[C@@H](Cc2ccc(O)cc2)C(=O)N[C@@H](CC(=O)O)C1=O [Ex 1323] ({CH2CO}-[2Nal]YD[NHexGly]Y[Nle]NRL[Ahp(2)]PVDCY-NH2; thioether N-14),pIC50,"cell-based binding high-content assay, mVISTA, the 16th table, read-out: HC CBA mVISTA IC50",7.87
CCCCCCN1CC(=O)N[C@@H](Cc2ccc(O)cc2)C(=O)N[C@@H](CCCCC)C(=O)N[C@@H](CC(N)=O)C(=O)N[C@@H](CCN)C(=O)N[C@@H](CC(C)C)C(=O)N[C@@H](CCCCC)C(=O)N2CCC[C@H]2C(=O)N[C@@H](C(C)C)C(=O)N[C@@H](CO)C(=O)N[C@H](C(=O)NCC(N)=O)CSCC(=O)N[C@@H](Cc2ccccc2)C(=O)N[C@@H](Cc2ccc(O)cc2)C(=O)N[C@@H](CC(=O)O)C1=O [Example 1037] ({CH2CO}-FYD[NHexGly]Y[Ahp(2)]N[Dab]L[Ahp(2)]PVSCG-NH2; thioether N-14),pIC50,[1],7.44
CCCCCCN1CC(=O)N[C@@H](Cc2ccc(O)cc2)C(=O)N[C@@H](CCCCC)C(=O)NCC(=O)N[C@@H](CCCNC(N)=O)C(=O)N[C@@H](CC(C)C)C(=O)N[C@@H](CCCCC)C(=O)N2CCC[C@H]2C(=O)N[C@@H](C(C)C)C(=O)N[C@@H](CO)C(=O)N[C@H](C(=O)NCCOCCOCC(=O)N[C@@H](CC(=O)O)C(=O)NCCOCCOCC(=O)NCCCCCCCCCCC(=O)O)CSCC(=O)N[C@@H](Cc2ccccc2)C(=O)N[C@@H](Cc2ccc(O)cc2)C(=O)N[C@@H](CC(=O)O)C1=O [compound 2307] ({CH2CO}-FYD[NHexGly]Y[Ahp(2)]G[Cit]L[Ahp(2)]PVSC[AEEA]D[AEEA][Aun]-OH; thioether N-14),pIC50,[3],7.67
CCCCCCN1CC(=O)N[C@@H](Cc2ccc(O)cc2)C(=O)N[C@@H](CCCC)C(=O)N[C@@H](CC(N)=O)C(=O)N[C@@H](CCCNC(=N)N)C(=O)N(C)[C@@H](CCCC)C(=O)N[C@@H](CCCCC)C(=O)N2CCC[C@H]2C(=O)N[C@@H](C(C)(C)C)C(=O)N[C@@H](CC(=O)O)C(=O)N[C@H](C(=O)NCC(N)=O)CSCC(=O)N[C@@H](Cc2ccccc2)C(=O)N[C@@H](Cc2c[nH]c3ccccc23)C(=O)N[C@@H](CC(=O)O)C1=O [Example 1396] ({CH2CO}-FWD[NHexGly]Y[Nle]NR[NMeNle][Ahp(2)]P[Tle]DCG-NH2; thioether N-14),pIC50,read-out: HC CBA mVISTA IC50,7.57
CCCCCCN1CC(=O)N[C@@H](Cc2ccc(O)cc2)C(=O)N[C@@H](CC(C)C)C(=O)N[C@@H](CC(N)=O)C(=O)N[C@@H](CCCN)C(=O)N(C)[C@@H](CCCC)C(=O)N[C@@H](CCCCC)C(=O)N2CCC[C@H]2C(=O)N[C@@H](C(C)(C)C)C(=O)N[C@@H](CC(=O)O)C(=O)N[C@H](C(=O)N[C@@H](CC(=O)NCCOCCOCC(=O)N[C@@H](CC(=O)O)C(=O)NCCOCCOCC(=O)NCCCCCCCCCCC(=O)O)C(=O)O)CSCC(=O)N[C@@H](Cc2ccccc2)C(=O)N[C@@H](Cc2cccc(C)c2)C(=O)N[C@@H](CC(=O)O)C1=O [compound 2074] ({CH2CO}-F[Phe(3-Me)]D[NHexGly]YLN[Orn][NMeNle][Ahp(2)]P[Tle]DC[βAsp][AEEA]D[AEEA][Aun]-OH; thioether N-14),pIC50,[2],7.40
CCCCCCN1CC(=O)N[C@@H](Cc2ccc(O)cc2)C(=O)N[C@@H](CCCCC)C(=O)N[C@@H](CC(N)=O)C(=O)N[C@@H](CCCN)C(=O)N(C)[C@@H](CCCC)C(=O)N[C@@H](CCCCC)C(=O)N2CCC[C@H]2C(=O)N[C@@H](C(C)(C)C)C(=O)N[C@@H](CC(=O)O)C(=O)N[C@H](C(=O)N[C@@H](CCC(=O)NCCCCCCCCCCC(=O)O)C(=O)O)CSCC(=O)N[C@@H](Cc2ccccc2)C(=O)N[C@@H](Cc2ccc(O)cc2)C(=O)N[C@@H](CC(=O)O)C1=O [Example 2141] ({CH2CO}-FYD[NHexGly]Y[Ahp(2)]N[Orn][NMeNle][Ahp(2)]P[Tle]DC[γGlu][Aun]-OH; thioether N-14),pIC50,read-out: HC CBA mVISTA IC50,7.58
